From patent publication US20240132431A1, “METHOD FOR ALKYLATING ACIDIC FUNCTIONAL GROUP” (Chugai Seiyaku Kabushiki Kaisha, priority 2021, published 2024)

Target: T1, Bcl-2 protein (Recombinant Human Bcl-2 Protein) (Homo sapiens, UniProt P10415)
T1 construct: purchased Novus NBP2-34889
Experiment: Binding evaluation of mixture library compounds to Bcl-2 using AS-MS (affinity selection mass spectrometry)
Settings: for ASMS ratio (%) n = 1 / ASMS ratio (%) n = 2: ASMS Ratio(%)=(A−C)/B×100; for ASMS ratio (%) n = 1: replicate n = 1; for ASMS ratio (%) n = 2: replicate n = 2
Method in brief: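 Bcl-2 binding is scored from LC/MS signal retained with protein through gel-filtration spin columns, normalised to unfiltered and protein-free controls. Incubation: 20 μM protein, […] per compound, 1 h, 23° C.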

[1] = AS-MS on the mixture of 1200 library compounds
[2] = AS-MS, mixture of 1200 compounds, Bcl-2

T1 sequence (P10415 whole entry): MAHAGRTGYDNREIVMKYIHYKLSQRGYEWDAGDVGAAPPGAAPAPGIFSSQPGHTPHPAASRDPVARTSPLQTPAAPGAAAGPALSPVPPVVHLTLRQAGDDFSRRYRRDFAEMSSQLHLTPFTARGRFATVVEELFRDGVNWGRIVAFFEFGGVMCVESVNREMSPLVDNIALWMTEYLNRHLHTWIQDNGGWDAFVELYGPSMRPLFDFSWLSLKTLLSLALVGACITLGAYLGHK

Question: For `CCOc1cccc(-c2cc(CN3CCN(c4ccc(C(=O)NS(C)(=O)=O)nn4)CC3)cc(OC(F)(F)F)c2)c1` [B2I089-01, 6-[4-[[3-(3-Ethoxyphenyl)-5-(trifluoromethoxy)phenyl]methyl]piperazin-1-yl]-N-methylsulfonylpyridazine-3-carboxamide], which “ASMS ratio (%)” value (n = 1) is on record?
Answer: The value was 1.4%.

Question: What about the “ASMS ratio (%)” value (n = 2) of the same compound?
Answer: The value was 0.0%.

Question: `CCOc1cccc(-c2cc(CN3CCN(c4ccc(C(=O)N(C)CC56CC7CC(CC(C7)C5)C6)cc4)CC3)cc(OCC)c2)c1` [B3A055-01, N-(1-Adamantylmethyl)-4-[4-[[3-ethoxy-5-(3-ethoxyphenyl)phenyl]methyl]piperazin-1-yl]-N-methylbenzamide] was tested. Which “ASMS ratio (%) n = 1” value [1] did it give?
Answer: The value was 10.8%.

Question: What about the “ASMS ratio (%) n = 2” value [1] of the same compound?
Answer: Its value is −12.7%.

Question: `CCOc1cccc(-c2ccc(CN3CCN(c4ccc(C(=O)NS(=O)(=O)CCC(F)(F)F)nn4)CC3)cc2C)c1` [B2N073-01, 6-[4-[[4-(3-Ethoxyphenyl)-3-methylphenyl]methyl]piperazin-1-yl]-N-(3,3,3-trifluoropropylsulfonyl)pyridazine-3-carboxamide] was tested. Which “ASMS ratio (%)” value (n = 1) did it give?
Answer: Its value is 0.0%.

Question: What about the “ASMS ratio (%)” value (n = 2) of the same compound?
Answer: Its value is 0.0%.

Question: For `CCOc1cncc(-c2ccccc2CCC(=O)N2CCN(c3ccc(C(=O)N(CC)CC)nn3)CC2)c1` [B4J012-01, 6-[4-[3-[2-(5-Ethoxypyridin-3-yl)phenyl]propanoyl]piperazin-1-yl]-N,N-diethylpyridazine-3-carboxamide], which “ASMS ratio (%) n = 1” value [1] is on record?
Answer: The value was −1.1%.

Question: What about the “ASMS ratio (%) n = 2” value [1] of the same compound?
Answer: Its value is −0.8%.

Question: Which results are given for `CCOc1cncc(-c2ccc(C(=O)N3CCN(c4ccc(C(=O)NCC56CC7CC(CC(C7)C5)C6)cc4)CC3)cc2F)c1` [B1A028-01, N-(1-Adamantylmethyl)-4-[4-[4-(5-ethoxypyridin-3-yl)-3-fluorobenzoyl]piperazin-1-yl]benzamide]?
Answer: ASMS ratio (%) n = 1 [2]: −1.6%; ASMS ratio (%) n = 2 [2]: −4.7%

Question: Which “ASMS ratio (%) n = 1” value [1] does the source give for “4-[4-[2-[2-(5-Ethoxypyridin-3-yl)ethynyl]benzoyl]piperazin-1-yl]-N-propylbenzamide [B1M098-01]” here?
Answer: The value was 0.9%.

Question: And the “ASMS ratio (%) n = 2” value [1]?
Answer: The value was 0.3%.

Question: `CCOc1cccc(C#Cc2ccccc2C(=O)N2CCN(c3ccc(C(=O)N(C)CC45CC6CC(CC(C6)C4)C5)nn3)CC2)c1` [B3A007-01, N-(1-Adamantylmethyl)-6-[4-[2-[2-(3-ethoxyphenyl)ethynyl]benzoyl]piperazin-1-yl]-N-methylpyridazine-3-carboxamide] was tested. Which “ASMS ratio (%) n = 1” value [1] did it give?
Answer: The value was 9.1%.

Question: What about the “ASMS ratio (%) n = 2” value [1] of the same compound?
Answer: Its value is −5.1%.

Question: Which “ASMS ratio (%) n = 1” value [2] does the source give for “4-[4-[[4-(3-Ethoxyphenyl)-2-ethylphenyl]methyl]piperazin-1-yl]-N-propylbenzamide [B1M069-01]” here?
Answer: The value was −0.2%.

Question: What about the “ASMS ratio (%) n = 2” value [2] of the same compound?
Answer: The value was −4.4%.

Question: Which results are given for `CCOc1cccc(-c2cc(CN3CCN(c4ccc(C(=O)Nc5ccc(OC)cc5)cc4)CC3)cc(C(F)(F)F)c2)c1` [B1O061-01, 4-[4-[[3-(3-Ethoxyphenyl)-5-(trifluoromethyl)phenyl]methyl]piperazin-1-yl]-N-(4-methoxyphenyl)benzamide]?
Answer: ASMS ratio (%) n = 1 [1]: 1.9%; ASMS ratio (%) n = 2 [1]: −1.5%

Question: What does the source list for “4-[4-[4-(3-Ethoxyphenyl)-3-methylbenzoyl]piperazin-1-yl]-N-propylbenzamide [B1M038-01]”?
Answer: ASMS ratio (%) n = 1 [2]: 0.0%; ASMS ratio (%) n = 2 [2]: 1.7%

Question: `CCOc1cncc(-c2cc(CN3CCN(c4ccc(C(=O)NS(=O)(=O)c5ccc(NCCSc6ccccc6)c([N+](=O)[O-])c5)cc4)CC3)cc(OCC)c2)c1` [B2Q056-01, 4-[4-[[3-Ethoxy-5-(5-ethoxypyridin-3-yl)phenyl]methyl]piperazin-1-yl]-N-[3-nitro-4-(2-phenylsulfanylethylamino)phenyl]sulfonylbenzamide] was tested. Which “ASMS ratio (%) n = 1” value (AS-MS, mixture library, Bcl-2) did it give?
Answer: Its value is 7.3%.

Question: And the “ASMS ratio (%) n = 2” value (AS-MS, mixture library, Bcl-2)?
Answer: The value was 2.8%.

Question: `CCOc1cncc(-c2ccc(C(=O)N3CCN(c4ccc(C(=O)NS(=O)(=O)CCC(F)(F)F)nn4)CC3)c3ccccc23)c1` [B2N014-01, 6-[4-[4-(5-Ethoxypyridin-3-yl)naphthalene-1-carbonyl]piperazin-1-yl]-N-(3,3,3-trifluoropropylsulfonyl)pyridazine-3-carboxamide] was tested. Which “ASMS ratio (%)” value (n = 1) did it give?
Answer: The value was 0.0%.

Question: And the “ASMS ratio (%)” value (n = 2)?
Answer: Its value is 0.0%.

Question: For `CCOc1cncc(-c2ccc(CN3CCN(c4ccc(C(=O)NCC56CC7CC(CC(C7)C5)C6)cc4)CC3)cc2F)c1` [B1A052-01, N-(1-Adamantylmethyl)-4-[4-[[4-(5-ethoxypyridin-3-yl)-3-fluorophenyl]methyl]piperazin-1-yl]benzamide], which “ASMS ratio (%) n = 1” value [2] is on record?
Answer: The value was 4.2%.

Question: What about the “ASMS ratio (%) n = 2” value [2] of the same compound?
Answer: The value was −6.2%.

Question: `CCOc1cncc(-c2cc(CN3CCN(c4ccc(C(=O)NCC56CC7CC(CC(C7)C5)C6)cc4)CC3)cc(OCC)c2)c1` [B1A056-01, N-(1-Adamantylmethyl)-4-[4-[[3-ethoxy-5-(5-ethoxypyridin-3-yl)phenyl]methyl]piperazin-1-yl]benzamide] was tested. Which “ASMS ratio (%) n = 1” value [2] did it give?
Answer: Its value is 9.7%.

Question: What about the “ASMS ratio (%) n = 2” value [2] of the same compound?
Answer: Its value is 4.0%.

Question: How did the “ASMS ratio (%) n = 1” value (AS-MS, mixture library, Bcl-2) turn out when `CCOc1cncc(-c2cc(CN3CCN(c4ccc(C(=O)N(CC)CC)cc4)CC3)cc(OC(F)(F)F)c2)c1` [B4J064-01, 4-[4-[[3-(5-Ethoxypyridin-3-yl)-5-(trifluoromethoxy)phenyl]methyl]piperazin-1-yl]-N,N-diethylbenzamide] was run?
Answer: The value was 1.6%.

Question: And the “ASMS ratio (%) n = 2” value (AS-MS, mixture library, Bcl-2)?
Answer: The value was 0.0%.

Question: For `CCOc1cncc(-c2ccc(C(=O)N3CCN(c4ccc(C(=O)NS(C)(=O)=O)nn4)CC3)cc2C)c1` [B2I004-01, 6-[4-[4-(5-Ethoxypyridin-3-yl)-3-methylbenzoyl]piperazin-1-yl]-N-methylsulfonylpyridazine-3-carboxamide], which “ASMS ratio (%) n = 1” value (AS-MS, mixture library, Bcl-2) is on record?
Answer: Its value is 0.9%.

Question: What about the “ASMS ratio (%) n = 2” value (AS-MS, mixture library, Bcl-2) of the same compound?
Answer: The value was −0.3%.

Question: With `CCOc1cncc(-c2ccc(C(=O)N3CCN(c4ccc(C(=O)NS(=O)(=O)CCC(F)(F)F)cc4)CC3)c3ccccc23)c1` [B2N036-01, 4-[4-[4-(5-Ethoxypyridin-3-yl)naphthalene-1-carbonyl]piperazin-1-yl]-N-(3,3,3-trifluoropropylsulfonyl)benzamide] as the compound, how does the “ASMS ratio (%)” value (n = 1) read?
Answer: Its value is 0.0%.

Question: And the “ASMS ratio (%)” value (n = 2)?
Answer: Its value is 0.4%.

Question: With `CCOc1cccc(-c2ccc(C(=O)N3CCN(c4ccc(C(=O)NS(C)(=O)=O)cc4)CC3)cc2C)c1` [B2I025-01, 4-[4-[4-(3-Ethoxyphenyl)-3-methylbenzoyl]piperazin-1-yl]-N-methylsulfonylbenzamide] as the compound, how does the “ASMS ratio (%) n = 1” value (AS-MS, mixture library, Bcl-2) read?
Answer: The value was 0.0%.

Question: And the “ASMS ratio (%) n = 2” value (AS-MS, mixture library, Bcl-2)?
Answer: The value was 0.0%.

Question: Which “ASMS ratio (%) n = 1” value (AS-MS, mixture library, Bcl-2) does the source give for `CCOc1cncc(C#Cc2ccccc2C(=O)N2CCN(c3ccc(C(=O)NS(C)(=O)=O)cc3)CC2)c1` [B2I030-01, 4-[4-[2-[2-(5-Ethoxypyridin-3-yl)ethynyl]benzoyl]piperazin-1-yl]-N-methylsulfonylbenzamide] here?
Answer: The value was 0.0%.

Question: What about the “ASMS ratio (%) n = 2” value (AS-MS, mixture library, Bcl-2) of the same compound?
Answer: The value was 0.0%.

Question: For `CCOc1cncc(-c2ccc(C(C)N3CCN(c4ccc(C(=O)N(CC)CC)cc4)CC3)cc2)c1` (stereo not shown) [B4J098-01, 4-[4-[1-[4-(5-Ethoxypyridin-3-yl)phenyl]ethyl]piperazin-1-yl]-N,N-diethylbenzamide], which “ASMS ratio (%) n = 1” value (AS-MS, mixture library, Bcl-2) is on record?
Answer: Its value is −2.0%.

Question: And the “ASMS ratio (%) n = 2” value (AS-MS, mixture library, Bcl-2)?
Answer: Its value is −0.2%.

Question: Which results are given for `CCOc1cccc(-c2ccc(CN3CCN(c4ccc(C(=O)N(CC)CC)nn4)CC3)cc2C)c1` [B4J073-01, 6-[4-[[4-(3-Ethoxyphenyl)-3-methylphenyl]methyl]piperazin-1-yl]-N,N-diethylpyridazine-3-carboxamide]?
Answer: ASMS ratio (%) n = 1 (AS-MS, mixture library, Bcl-2): 2.1%; ASMS ratio (%) n = 2 (AS-MS, mixture library, Bcl-2): 0.0%

Question: How did the “ASMS ratio (%)” value (n = 1) turn out when `CCOc1cccc(-c2cc(CN3CCN(c4ccc(C(=O)NS(C)(=O)=O)nn4)CC3)cc(OC(C)C)c2)c1` [B2I083-01, 6-[4-[[3-(3-Ethoxyphenyl)-5-propan-2-yloxyphenyl]methyl]piperazin-1-yl]-N-methylsulfonylpyridazine-3-carboxamide] was run?
Answer: Its value is 0.0%.

Question: What about the “ASMS ratio (%)” value (n = 2) of the same compound?
Answer: Its value is 0.0%.

Question: With `CCOc1cncc(-c2cc(CN3CCN(c4ccc(C(=O)NS(C)(=O)=O)cc4)CC3)cc(OC(F)(F)F)c2)c1` [B2I064-01, 4-[4-[[3-(5-Ethoxypyridin-3-yl)-5-(trifluoromethoxy)phenyl]methyl]piperazin-1-yl]-N-methylsulfonylbenzamide] as the compound, how does the “ASMS ratio (%)” value (n = 1) read?
Answer: Its value is 0.0%.

Question: And the “ASMS ratio (%)” value (n = 2)?
Answer: The value was 0.0%.

Question: `CCOc1cccc(-c2ccc(CN3CCN(c4ccc(C(=O)NCC56CC7CC(CC(C7)C5)C6)nn4)CC3)cc2C)c1` [B1A073-01, N-(1-Adamantylmethyl)-6-[4-[[4-(3-ethoxyphenyl)-3-methylphenyl]methyl]piperazin-1-yl]pyridazine-3-carboxamide] was tested. Which “ASMS ratio (%) n = 1” value [2] did it give?
Answer: The value was 3.2%.

Question: And the “ASMS ratio (%) n = 2” value [2]?
Answer: The value was −4.7%.

Question: How did the “ASMS ratio (%) n = 1” value (AS-MS, mixture library, Bcl-2) turn out when `CCOc1cncc(-c2ccc(CN3CCN(c4ccc(C(=O)NS(=O)(=O)c5ccc(NCCSc6ccccc6)c([N+](=O)[O-])c5)nn4)CC3)c(CC)c2)c1` [B2Q076-01, 6-[4-[[4-(5-Ethoxypyridin-3-yl)-2-ethylphenyl]methyl]piperazin-1-yl]-N-[3-nitro-4-(2-phenylsulfanylethylamino)phenyl]sulfonylpyridazine-3-carboxamide] was run?
Answer: Its value is 0.0%.
